Key:
[1] = molecular target: T1, Purified recombinant ADAMTS-7 (rat prodomain/human catalytic domain, SEQ ID No. 01 or 02) (Homo sapiens, UniProt Q9UKP4); assay: Assay for ADAMTS-7 enzymatic activity (FRET substrate cleavage); assay type: biochemical; conditions: FRET substrate SEQ ID No. 11, 120 min at 32° C.; read-out: ADAMTS7-IC50
T1 construct: rat ADAMTS-7 signal peptide + prodomain (rat 1-217, Q1EHB3) (N); 2xStrep tag (C); 6xHis tag (C); made in house; host or cells: Expi293 cells
T1 sequence (Q9UKP4 237-537): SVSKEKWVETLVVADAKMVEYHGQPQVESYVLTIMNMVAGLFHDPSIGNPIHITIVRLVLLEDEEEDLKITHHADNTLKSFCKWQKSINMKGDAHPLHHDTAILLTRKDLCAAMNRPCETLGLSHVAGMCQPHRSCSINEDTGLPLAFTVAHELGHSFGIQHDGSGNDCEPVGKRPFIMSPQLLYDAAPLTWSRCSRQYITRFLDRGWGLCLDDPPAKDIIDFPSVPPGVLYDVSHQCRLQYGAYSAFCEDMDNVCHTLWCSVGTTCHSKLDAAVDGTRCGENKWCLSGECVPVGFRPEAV
Description: Purified recombinant ADAMTS-7 (as of SEQ ID No. 01 or SEQ ID No. 02) was diluted in reaction buffer (20 mM HEPES pH 8.0, 150 mM NaCl, 5 mM CaCl2, 0.004% Brij, 10 μM ZnCl2) fora concentration of approximately 20 nM. 25 μl of the solution were transferred into each well of a 384-well white microtiter plate (Greiner Bio-One 781075) and 1 μl test compound solution (modulator/inhibitor dissolved in DMSO, at the corresponding concentration) or pure DMSO as a control were added per well. […] Amino acids […] are derived from Thrombospondin-1 sequence (275-289). An additional carboxyl glutamic acid was added after the QXL520 quencher to increase substrate solubility. The microtiter plate was incubated for 120 min at the temperature of 32° C. The increase of fluorescence intensity was measured in appropriate fluorescence plate reader (e.g. TECAN Ultra) using excitation wavelength of 485 nm and emission wavelength of 520 nm. IC50 values were calculated from percentage of inhibition of ADAMTS-7 activity as a function of test compound concentration.

[2] = molecular target: T2, ADAMTS4 (Homo sapiens, UniProt O75173); assay: Selectivity assay for ADAMTS-7 modulators (FRET), ADAMTS4; assay type: biochemical; conditions: 50 nM enzyme (R&D 4307-AD), 1 μM Dabcyl/Edans FRET substrate, 120 min at 32° C.
T2 construct: purchased R&D 4307-AD
T2 sequence (O75173 213-685 limits assumed): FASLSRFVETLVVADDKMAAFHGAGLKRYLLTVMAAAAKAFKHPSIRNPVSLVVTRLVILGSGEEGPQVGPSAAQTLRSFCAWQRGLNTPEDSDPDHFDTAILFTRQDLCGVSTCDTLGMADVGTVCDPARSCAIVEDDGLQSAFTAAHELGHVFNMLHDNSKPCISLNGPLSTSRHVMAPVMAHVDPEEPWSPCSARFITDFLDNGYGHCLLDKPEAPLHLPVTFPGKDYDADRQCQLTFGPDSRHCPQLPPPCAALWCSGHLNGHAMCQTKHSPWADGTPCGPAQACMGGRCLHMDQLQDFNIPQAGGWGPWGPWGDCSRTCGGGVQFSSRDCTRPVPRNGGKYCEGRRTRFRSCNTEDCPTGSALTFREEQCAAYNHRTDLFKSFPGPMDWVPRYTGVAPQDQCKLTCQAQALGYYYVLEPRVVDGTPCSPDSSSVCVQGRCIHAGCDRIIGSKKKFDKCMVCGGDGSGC
Description: The respective enzyme (see table 2 below) was diluted in reaction buffer (50 mM Tris, 2.5 μM ZnCl2, 0.05% BSA, 0.001% Brij, pH 7.5 for ADAM17; 50 mM Tris 7.5, 150 mM NaCl, 10 mM CaCl2, 0.05% Brij for all other enzymes) to the respective concentration and 25 μl were transferred into each well of a 384-well white microtiter plate (Greiner Bio One 781075). 1 μl test compound solution (dissolved in DMSO, at the corresponding concentration) or pure DMSO as a control was added per well. The enzymatic reaction was initiated by addition of 25 μl of the respective concentration of the respective FRET substrate (see table 2 below) in reaction buffer. The microtiter plate was incubated for 120 min at the temperature of 32° C. The increase of fluorescence intensity was measured in appropriate fluorescence plate reader (e.g. TECAN Ultra) using the respective wavelengths for excitation and emission. IC50 values were calculated from percentage of inhibition of enzyme activity as a function of test compound concentration.

Structure (SMILES) | IC50 [1] | IC50 [2]
CC(C)(C)C1(CNC(=O)c2cnn(-c3ccc(C(F)(F)F)c(F)c3)n2)NC(=O)NC1=O (racemic) [Example 2, rac-N-{[4-tert-butyl-2,5-dioxoimidazolidin-4-yl]methyl}-2-[3-fluoro-4-(trifluoromethyl)phenyl]-2H-1,2,3-triazole-4-carboxamide] | 210 nM | –
CC(C)(C)C1(CNC(=O)c2cnn(-c3cccc(F)c3)n2)NC(=O)NC1=O (racemic) [Example 4, rac-N-{[4-tert-butyl-2,5-dioxoimidazolidin-4-yl]methyl}-2-(3-fluorophenyl)-2H-1,2,3-triazole-4-carboxamide] | 260 nM | 6600 nM
CC(C)(C)C1(CNC(=O)c2cnn(-c3ccc(C(F)(F)F)cc3)n2)NC(=O)NC1=O (racemic) [Example 6, rac-N-[(4-tert-butyl-2,5-dioxoimidazolidin-4-yl)methyl]-2-[4-(trifluoromethyl)phenyl]-2H-1,2,3-triazole-4-carboxamide] | 620 nM | –
O=C1NC(=O)C(CNC(=O)c2cnn(-c3ccccc3)n2)(C2CCCOC2)N1 (racemic) [Example 7, rac-N-{[2,5-dioxo-4-(tetrahydro-2H-pyran-3-yl)imidazolidin-4-yl]methyl}-2-phenyl-2H-1,2,3-triazole-4-carboxamide] | 62 nM | 8500 nM
O=C1NC(=O)C(CNC(=O)c2cnn(-c3ccccc3)n2)(C2CCOC2)N1 (racemic) [Example 19, rac-N-{[2,5-dioxo-4-(tetrahydrofuran-3-yl)imidazolidin-4-yl]methyl}-2-phenyl-2H-1,2,3-triazole-4-carboxamide] | 170 nM | 22000 nM
O=C1NC(=O)C(CNC(=O)c2cnn(-c3ccccc3)n2)(c2ccccn2)N1 (racemic) [Example 20, rac-N-{[2,5-dioxo-4-(pyridin-2-yl)imidazolidin-4-yl]methyl}-2-phenyl-2H-1,2,3-triazole-4-carboxamide] | 26 nM | 4800 nM
O=C1NC(=O)C(CNC(=O)c2cnn(-c3ccccc3)n2)(c2ccncc2)N1 (racemic) [Example 21, rac-N-{[2,5-dioxo-4-(pyridin-4-yl)imidazolidin-4-yl]methyl}-2-phenyl-2H-1,2,3-triazole-4-carboxamide] | 200 nM | 2800 nM
O=C1NC(=O)C(CNC(=O)c2cnn(-c3ccc(F)cc3)n2)(c2ccccn2)N1 (racemic) [Example 22, rac-N-{[2,5-dioxo-4-(pyridin-2-yl)imidazolidin-4-yl]methyl}-2-(4-fluorophenyl)-2H-1,2,3-triazole-4-carboxamide] | 10 nM | 3000 nM
O=C1NC(=O)C(CNC(=O)c2cnn(-c3ccc(F)cc3)n2)(c2cccnc2)N1 (racemic) [Example 23, rac-N-{[2,5-dioxo-4-(pyridin-3-yl)imidazolidin-4-yl]methyl}-2-(4-fluorophenyl)-2H-1,2,3-triazole-4-carboxamide] | 30 nM | 4500 nM
O=C1NC(=O)C(CNC(=O)c2cnn(-c3ccc(F)cc3)n2)(c2ccncc2)N1 (racemic) [Example 24, rac-N-{[2,5-dioxo-4-(pyridin-4-yl)imidazolidin-4-yl]methyl}-2-(4-fluorophenyl)-2H-1,2,3-triazole-4-carboxamide] | 140 nM | 2900 nM
CC(C)C1(CNC(=O)c2cnn(-c3ccccc3)n2)NC(=O)NC1=O (racemic) [Example 48, rac-N-[(2,5-dioxo-4-(propan-2-yl)imidazolidin-4-yl)methyl]-2-phenyl-2H-1,2,3-triazole-4-carboxamide] | 265 nM | 14500 nM
CC(C)(C)C1(CNC(=O)c2cnn(-c3ccccc3)n2)NC(=O)NC1=O (racemic) [Example 49, rac-[(4-tert-butyl-2,5-dioxoimidazolidin-4-yl)methyl]-2-phenyl-2H-1,2,3-triazole-4-carboxamide] | 70 nM | 15000 nM
O=C1NC(=O)C(CNC(=O)c2cnn(-c3ccccc3)n2)(C2CCCC2)N1 (racemic) [Example 50, rac-N-[(4-cyclopentyl-2,5-dioxoimidazolidin-4-yl)methyl]-2-phenyl-2H-1,2,3-triazole-4-carboxamide] | 191 nM | –
CCCCC1(CNC(=O)c2cnn(-c3ccccc3)n2)NC(=O)NC1=O (racemic) [Example 51, rac-N-[(4-butyl-2,5-dioxoimidazolidin-4-yl)methyl]-2-phenyl-2H-1,2,3-triazole-4-carboxamide] | 89 nM | 15000 nM
O=C1NC(=O)C(CNC(=O)c2cnn(-c3ccccc3)n2)(C2CCC2)N1 (racemic) [Example 52, rac-N-[4-cyclobutyl-2,5-dioxoimidazolidin-4-yl)methyl]-2-phenyl-2H-1,2,3-triazole-4-carboxamide] | 55 nM | 14000 nM
O=C1NC(=O)C(CNC(=O)c2cnn(-c3ccccc3)n2)(C2CCCCC2)N1 (racemic) [Example 53, rac-N-[(4-cyclohexyl-2,5-dioxoimidazolidin-4-yl)methyl]-2-phenyl-2H-1,2,3-triazole-4-carboxamide] | 145 nM | –
O=C1NC(=O)C(CNC(=O)c2cnn(-c3ccc(F)cc3)n2)(CC2CC2)N1 (racemic) [Example 64, rac-N-[4-(cyclopropylmethyl)-2,5-dioxoimidazolidin-4-yl)methyl]-2-(4-fluorophenyl)-2H-1,2,3-triazole-4-carboxamide] | 240 nM | –
O=C1NC(=O)C(CNC(=O)c2cnn(-c3ccc(F)cc3)n2)(C2CCCC2)N1 (racemic) [Example 66, rac-N-[(4-cyclopentyl-2,5-dioxoimidazolidin-4-yl]methyl]-2-(4-fluorophenyl)-2H-1,2,3-triazole-4-carboxamide] | 380 nM | –
O=C1NC(=O)C(CNC(=O)c2cnn(-c3ccc(F)cc3)n2)(c2ncsc2C2CC2)N1 (racemic) [Example 157, rac-N-{[4-(5-cyclopropyl-1,3-thiazol-4-yl)-2,5-dioxoimidazolidin-4-yl]methyl}-2-(4-fluorophenyl)-2H-1,2,3-triazole-4-carboxamide] | – | 460 nM
O=C1NC(=O)C(CNC(=O)c2cnn(-c3ccc(F)cc3)n2)(c2ccccn2)N1 (single isomer, unassigned) [Example 138, ent-N-{[2,5-dioxo-4-(pyridin-2-yl)imidazolidin-4-yl]methyl}-2-(4-fluorophenyl)-2H-1,2,3-triazole-4-carboxamide] | 590 nM | –
O=C1NC(=O)C(CNC(=O)c2cnn(-c3ccc(Cl)c(F)c3)n2)(C2CCC2)N1 (single isomer, unassigned; ent-2) [Example 89, ent-2-(4-chloro-3-fluorophenyl)-N-[(4-cyclobutyl-2,5-dioxoimidazolidin-4-yl)methyl]-2H-1,2,3-triazole-4-carboxamide] | – | 975 nM
C[C@@H](NC(=O)c1cnn(-c2ccccc2)n1)C1(C2CC2)NC(=O)NC1=O (stereo partly drawn) [Example 39, ent-N-((1R)-1-(4-Cyclopropyl-2,5-dioxoimidazolidin-4-yl)ethyl)-2-phenyl-2H-1,2,3-triazole-4-carboxamide] | 710 nM | –
